This experiment addresses T1, WBSCR27 (Mus musculus, UniProt Q8BGM4).
T1 construct: gene Mettl27; recombinant in E. coli, Ni-NTA, His-tag cleaved; isotope-labelled for NMR
T1 sequence (Q8BGM4 1-238): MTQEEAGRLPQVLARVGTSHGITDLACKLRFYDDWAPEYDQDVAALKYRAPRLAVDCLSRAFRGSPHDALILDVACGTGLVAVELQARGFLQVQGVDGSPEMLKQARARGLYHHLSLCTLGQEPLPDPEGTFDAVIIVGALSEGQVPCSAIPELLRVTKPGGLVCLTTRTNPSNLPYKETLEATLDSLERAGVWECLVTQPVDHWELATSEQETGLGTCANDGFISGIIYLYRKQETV
The experiment can be described thus: […],1H HSQC NMR of epimer mixture with protein. Particulars: 308 K, labelled compound (methyl 13C), 0.05 mM each. In kind it is binding.

In the case of `C[S+](CC[C@H](N)C(=O)O)C[C@H]1O[C@@H](n2cnc3c(N)ncnc32)[C@H](O)[C@@H]1O` (mixture of isomers) [(R,S)-SAM], for the setting “equimolar mixture with (S,S)-SAM, seen bound only at the higher protein ratio”, the “13C,1H HSQC NMR of epimer mixture with protein” value is on record as “This indicates a significantly lower affinity of the (R,S)-epimer compared with the (S,S)-epimer”.

In the case of `C[S+](CC[C@H](N)C(=O)O)C[C@H]1O[C@@H](n2cnc3c(N)ncnc32)[C@H](O)[C@@H]1O` (stereo partly drawn) [(S,S)-SAM], the “13C,1H HSQC NMR of epimer mixture with protein” value (equimolar mixture with (R,S)-SAM) is “WBSCR27 preferably binds the (S,S) stereoisomer”.
